77 sequences from the supplement of paper PMC11208160 can be followed below.
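Also: IS621 recombinase and bridge RNA in Escherichia coli cells.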

A short description of the data set: recombinant barcode read abundance after kanamycin selection (control-corrected) (log10(CPM+1)); higher = more efficient recombination; sequences stand for … in AGTGCAGAGAAAATCGGCCAGTTTTCTCTGCCTGCAGTCCGCATGCCGT…AGATTTATGCAGCGGACTGCCTTTCTCCCAAAGTGATAAACCGGACAGTATCATGGACCGGTTTTCCCGGTAATCCGTATTTGCAAGGTTGGTTTCACT; site = the 11-nt target. In outline:
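Pooled oligos, each joining a target to an IS621 bridge RNA target-binding loop, were cloned and co-electroporated with a donor plasmid into E. coli. Selective plates carried chloramphenicol/ampicillin/kanamycin and 0.1 mM IPTG, while chloramphenicol/ampicillin LB agar served as control, with two replicates of each. Recombination efficiency rests on averaged, control-corrected counts per million of barcodes at recombinant junctions, shown as log10(CPM+1).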
For the sequence “TCAGAGGCTTGGGTTCTAACCTGTTGCTG (site TCCGAGGCTCA)”, the “recombinant barcode read abundance (log10)” value stood at 0.118. The result for “TCAGAGGCTTGGGTTCTAACCTGTTGCTG (site TCGGAGGCTCA)” reads 0.0529.

On to “TCAGAGGCTTGGGTTCTAACCTGTTGCTG (site TCTGAGGCTCA)”, for which the “recombinant barcode read abundance (log10)” value came out at 0.156. Take “TCAGATTCTTGGGTTCTAACCTGTTGCCT (site TCAAATTCTAG)”: the “recombinant barcode read abundance (log10)” value was 0.0231. For the sequence “TCAGATTCTTGGGTTCTAACCTGTTGCCT (site TCACATTCTAG)”, the “recombinant barcode read abundance (log10)” value worked out at 0.0298. Then “TCAGATTCTTGGGTTCTAACCTGTTGCCT (site TCAGATTCTAG)”, with 0.78; and “TCAGATTCTTGGGTTCTAACCTGTTGCCT (site TCATATTCTAG)”, with 0.114; and “TCAGGAGCTTGGGTTCTAACCTGTTGCGG (site TCAGGAGCTCC)”, with 2.07. For “TCAGGAGCTTGGGTTCTAACCTGTTGCGG (site TCAGGAGCTCT)”, the “recombinant barcode read abundance (log10)” value was 1.85. The result for “TCAGGCCCTTGGGTTCTAACCTGTTGCCT (site TAAGGCCCTAA)” reads 0.0837; that for “TCAGGCCCTTGGGTTCTAACCTGTTGCCT (site TCAGGCCCTAG)”, 0.702. Then “TCATGACCTTGGGTTCTAACCTGTTGCAT (site CTTAACACTCG)”, with 0.159; and “TCATGACCTTGGGTTCTAACCTGTTGCAT (site TCATGACCTAT)”, with 1.29; and “TCCAACACTTGGGTTCTAACCTGTTGCCG (site TCCAACACTCG)”, with 0.574. As for “TCCAACACTTGGGTTCTAACCTGTTGCCG (site TCCAATACTCG)”, the “recombinant barcode read abundance (log10)” value was 0.24.

On to “TCCAACCCTTGGGTTCTAACCTGTTGCCA (site GCCAACCCTTA)”, for which the “recombinant barcode read abundance (log10)” value amounted to 0.0929. Then “TCCAACCCTTGGGTTCTAACCTGTTGCCA (site TCCAACCCTTG)”, with 0.715. In the case of “TCCAAGGCTTGGGTTCTAACCTGTTGCCT (site TCAAAGGCTAG)”, the “recombinant barcode read abundance (log10)” value stood at 0.0841. As to “TCCAAGGCTTGGGTTCTAACCTGTTGCCT (site TCCAAGGCTAG)”, the “recombinant barcode read abundance (log10)” value worked out at 0.107. Regarding “TCCAAGGCTTGGGTTCTAACCTGTTGCCT (site TCGAAGGCTAG)”, the “recombinant barcode read abundance (log10)” value was 0.147. Then “TCCAAGGCTTGGGTTCTAACCTGTTGCCT (site TCTAAGGCTAG)”, with 1.48.

In the case of “TCCACAACTTGGGTTCTAACCTGTTGCCT (site TCCACAACTAG)”, the “recombinant barcode read abundance (log10)” value is 0.273. On to “TCCACAACTTGGGTTCTAACCTGTTGCCT (site TCCACACCTAG)”, for which the “recombinant barcode read abundance (log10)” value amounted to 0.122. Then “TCCACAACTTGGGTTCTAACCTGTTGCCT (site TCCACAGCTAG)”, with 0.283; and “TCCACAACTTGGGTTCTAACCTGTTGCCT (site TCCACATCTAG)”, with 0.193.

Consider “TCCACATCTTGGGTTCTAACCTGTTGCCT (site TCCACAACTAG)”, for which the “recombinant barcode read abundance (log10)” value came to 0.0262. Consider “TCCACATCTTGGGTTCTAACCTGTTGCCT (site TCCACACCTAG)”, for which the “recombinant barcode read abundance (log10)” value came out at 0.793.

Consider “TCCACATCTTGGGTTCTAACCTGTTGCCT (site TCCACAGCTAG)”, for which the “recombinant barcode read abundance (log10)” value amounted to 0.00992.

Turning to “TCCACATCTTGGGTTCTAACCTGTTGCCT (site TCCACATCTAG)”, the “recombinant barcode read abundance (log10)” value came to 0.477. Regarding “TCCATCCCTTGGGTTCTAACCTGTTGCTA (site TCCAGTCCTTA)”, the “recombinant barcode read abundance (log10)” value turned out to be 0.0637. With “TCCATCCCTTGGGTTCTAACCTGTTGCTA (site TCCATCCCTTA)”, the “recombinant barcode read abundance (log10)” value was found to be 0.605.

Consider “TCCCAGTCTTGGGTTCTAACCTGTTGCAT (site TCCCAGTCTAA)”, for which the “recombinant barcode read abundance (log10)” value is 0.542. Then “TCCCAGTCTTGGGTTCTAACCTGTTGCAT (site TCCCAGTCTAC)”, with 0.104; and “TCCCAGTCTTGGGTTCTAACCTGTTGCAT (site TCCCAGTCTAG)”, with 0.242; and “TCCCAGTCTTGGGTTCTAACCTGTTGCAT (site TCCCAGTCTAT)”, with 1.88. Then “TCCCAGTCTTGGGTTCTAACCTGTTGCCT (site TCCCAGTCTAA)”, with 0.0986; and “TCCCAGTCTTGGGTTCTAACCTGTTGCCT (site TCCCAGTCTAC)”, with 0.889; and “TCCCAGTCTTGGGTTCTAACCTGTTGCCT (site TCCCAGTCTAG)”, with 1.82.

Consider “TCCCAGTCTTGGGTTCTAACCTGTTGCCT (site TCCCAGTCTAT)”, for which the “recombinant barcode read abundance (log10)” value came to 0.594. Regarding “TCCCAGTCTTGGGTTCTAACCTGTTGCGT (site TCCCAGTCTAA)”, the “recombinant barcode read abundance (log10)” value is 0.433. Regarding “TCCCAGTCTTGGGTTCTAACCTGTTGCGT (site TCCCAGTCTAC)”, the “recombinant barcode read abundance (log10)” value is 2.59. For “TCCCAGTCTTGGGTTCTAACCTGTTGCGT (site TCCCAGTCTAG)”, the “recombinant barcode read abundance (log10)” value was 0.375. As to “TCCCAGTCTTGGGTTCTAACCTGTTGCGT (site TCCCAGTCTAT)”, the “recombinant barcode read abundance (log10)” value was determined as 1.6. Then “TCCCAGTCTTGGGTTCTAACCTGTTGCTT (site TCCCAGTCTAA)”, with 0.681; and “TCCCAGTCTTGGGTTCTAACCTGTTGCTT (site TCCCAGTCTAC)”, with 0.0373. The result for “TCCCAGTCTTGGGTTCTAACCTGTTGCTT (site TCCCAGTCTAG)” reads 0.684; that for “TCCCAGTCTTGGGTTCTAACCTGTTGCTT (site TCCCAGTCTAT)”, 1.19; that for “TCCCATACTTGGGTTCTAACCTGTTGCCT (site TCCCATACTAG)”, 0.493. The result for “TCCCATACTTGGGTTCTAACCTGTTGCCT (site TCCCATCCTAG)” reads 0.33; that for “TCCCATACTTGGGTTCTAACCTGTTGCCT (site TCCCATGCTAG)”, 0.109; that for “TCCCATACTTGGGTTCTAACCTGTTGCCT (site TCCCATTCTAG)”, 0.0766.

Regarding “TCCCCGGCTTGGGTTCTAACCTGTTGCCT (site TACCCGCCTAG)”, the “recombinant barcode read abundance (log10)” value was 0.0487.

As for “TCCCCGGCTTGGGTTCTAACCTGTTGCCT (site TCCCCGGCTAG)”, the “recombinant barcode read abundance (log10)” value stood at 0.285. “TCCCGAACTTGGGTTCTAACCTGTTGCCT (site TCCCGAACTAG)”: the “recombinant barcode read abundance (log10)” value was determined as 0.598.

Take “TCCCGAACTTGGGTTCTAACCTGTTGCCT (site TCCCGACCTAG)”: the “recombinant barcode read abundance (log10)” value amounted to 0.337. “TCCCGAACTTGGGTTCTAACCTGTTGCCT (site TCCCGAGCTAG)”: the “recombinant barcode read abundance (log10)” value stood at 0.173. Then “TCCCGAACTTGGGTTCTAACCTGTTGCCT (site TCCCGATCTAG)”, with 0.0125.

On to “TCCCGTCCTTGGGTTCTAACCTGTTGCCT (site TCCCGTCCTAG)”, for which the “recombinant barcode read abundance (log10)” value was 0.636. Then “TCCCGTCCTTGGGTTCTAACCTGTTGCCT (site TCCCTTCCTAG)”, with 0.196; and “TCCGACACTTGGGTTCTAACCTGTTGCCT (site TACGACACTAG)”, with 0.227; and “TCCGACACTTGGGTTCTAACCTGTTGCCT (site TCCGACACTAG)”, with 1.95. Take “TCCGAGACTTGGGTTCTAACCTGTTGCGT (site TCCGAGACTAC)”: the “recombinant barcode read abundance (log10)” value came out at 1.56. Then “TCCGAGACTTGGGTTCTAACCTGTTGCGT (site TTCGAAACTAC)”, with 0.226. As to “TCCGAGCCTTGGGTTCTAACCTGTTGCGT (site TCCGAGCCTAC)”, the “recombinant barcode read abundance (log10)” value was determined as 2.18. The result for “TCCGAGCCTTGGGTTCTAACCTGTTGCGT (site TCCGAGCCTAT)” reads 1.03; that for “TCCGAGGCTTGGGTTCTAACCTGTTGCTG (site TCAGAGGCTCA)”, 0.266; that for “TCCGAGGCTTGGGTTCTAACCTGTTGCTG (site TCCGAGGCTCA)”, 0.739. In the case of “TCCGAGGCTTGGGTTCTAACCTGTTGCTG (site TCGGAGGCTCA)”, the “recombinant barcode read abundance (log10)” value was found to be 0.521. Consider “TCCGAGGCTTGGGTTCTAACCTGTTGCTG (site TCTGAGGCTCA)”, for which the “recombinant barcode read abundance (log10)” value came to 0.241.

“TCCGATACTTGGGTTCTAACCTGTTGCGT (site GTGTGGCCTTG)”: the “recombinant barcode read abundance (log10)” value is 0.11. Regarding “TCCGATACTTGGGTTCTAACCTGTTGCGT (site TCCGATACTAC)”, the “recombinant barcode read abundance (log10)” value was 1.64. Regarding “TCCGGCGCTTGGGTTCTAACCTGTTGCGG (site CTTACTACTTG)”, the “recombinant barcode read abundance (log10)” value was determined as 0.0112.

Consider “TCCGGCGCTTGGGTTCTAACCTGTTGCGG (site TCCGGCGCTCC)”, for which the “recombinant barcode read abundance (log10)” value is 1.75. As to “TCCGTATCTTGGGTTCTAACCTGTTGCAG (site GAGTGGCCTTC)”, the “recombinant barcode read abundance (log10)” value turned out to be 0.16. “TCCGTATCTTGGGTTCTAACCTGTTGCAG (site TCCGTATCTCT)”: the “recombinant barcode read abundance (log10)” value was found to be 1.05. Regarding “TCCGTCCCTTGGGTTCTAACCTGTTGCAT (site TCCGACCCTGT)”, the “recombinant barcode read abundance (log10)” value came to 0.0832. With “TCCGTCCCTTGGGTTCTAACCTGTTGCAT (site TCCGTCCCTAT)”, the “recombinant barcode read abundance (log10)” value stood at 1.4.
